According to patent US8252749B2, “Methods, kits, and compositions for generating new hair follicles and growing hair” (Follica, Inc., priority 2006, dated 2012):
Entries after “also recorded” stand apart in the source; their conditions may differ.

Assays:
[1] = test system: new HF formation by EDIHN in wounded skin; assay: whole-mount EDIHN assay after excisional wounding of mice; assay type: in vivo
From the text: Punch wound and excisional wound induction. The backs of 21-day-old mice were depilated as described for Example 1 and sterilized with alcohol, followed by 1% iodine solution. Punch wounds, 4 mm in diameter, were induced using a dermal biopsy punch, down to, but not through, the muscle fascia. Excisional wounds were full thickness and 1 cm in diameter; skin and panniculus carnosus was excised using fine surgical scissors.
Whole mounting and immunofluorescence. HF whole mounts were obtained by incubating fresh skin with EDTA (20 mM in PBS) at 37° C. overnight, then separating the epidermis and dermis. Epidermis was then fixed in 10% formalin for 10 min, room temperature (RT). Dermis was fixed in acetone overnight, RT. After rinsing with PBS, whole mounts were stained with antibodies for immunohistochemistry (schematically depicted in FIG. 12) and were imaged using a Leica confocal microscope.
21 day-old mice were wounded as described in previous Examples. Starting from day 11 after wounding, a time point corresponding to the point at which the wound had recently re-epithelialized, 10 mL of 1 mg/ml EGF was injected into the wound bed. EGF was injected once per day after this point for a total of 5 days. Three days later, the skin was collected, and whole-mount EDIHN assays were performed. […] In addition, whole mounts of control and treated skin were analyzed with anti-K17 antibody immunostaining. […] (FIGS. 25 C-D).
In an additional experiment, recombinant EGF (1 microgram (mcg)/microliter (mcl)) was injected at days 11, 13 and 15 after wounding. Skin was collected at 18 days after wounding and stained for K17 and alkaline phosphotase.
To determine the effect of administration of EGF receptor inhibitors on DIHN, the inhibitor AG1478 (150 μM in 10 μL volume) was administered as a single injection 11 days after incisional wounding (1 cm2) to the middle of the wound near the skin surface. […] Left panel: epidermis stained for K17, with three large hair follicles next to each other. Right panel: dermis stained for AP with large coalescing dermal papilla areas.

[2] = test system: hair re-growth in abraded areas; assay: hair re-growth after epidermal abrasion of mice; assay type: in vivo; conditions: epidermis of mice abraded, then recombinant EGF administered
From the text: Depilation and epidermal abrasion. Mice were anesthetized with an injection of sodium pentobarbital before the hair on the back was clipped and depilated with Nair (Carter-Wallace, New York, N.Y.), then epidermis was removed using a rotating felt wheel as described by Argyris T, J. Invest. Dermatol. 75: 360 (1980). After scrubbing with 70% ethanol and drying under an incandescent lamp, the basal and supra-basal layers in an area of 1.5 cm^2/cm of the inter-follicular epidermis were removed by careful abrasion with a felt wheel mounted on a Dremel Moto-tool (Racine, Wis.). After abrasion, the skin was shiny and smooth, and there was no blood. One day later, the abraded area was covered by a fibrin crust, which fell off after 3-7 days, exposing the newly regenerated epidermis. A group of control mice was sacrificed immediately after abrasion to confirm microscopically the complete removal of the interfollicular epidermis.
Hair-bearing regions of the epidermis of mice is abraded, as described in Example 1, then administering recombinant EGF, as described in Example 1.

| Compound | generation of hair follicles (number and size) compared with control mice that were wounded only ([1]; 150 μM in 10 μL, single injection 11 days after excisional wounding (1 cm diameter), middle of the wound) | hair re-growth in the abraded areas [2] | HF formation as assessed by gross morphology ([1]; 21 day-old mice, 10 mL of 1 mg/ml EGF injected into wound bed once per day for 5 days from day 11 after wounding, skin collected three days later) | new HF formation, whole mounts with anti-K17 antibody immunostaining ([1]; 21 day-old mice, EGF injected into wound bed once per day for 5 days from day 11 after wounding, n=4 vs control n=2) | EDIHN, skin stained for K17 and alkaline phosphotase ([1]; recombinant EGF 1 mcg/mcl injected at days 11, 13 and 15 after wounding, skin collected at 18 days) |
| --- | --- | --- | --- | --- | --- |
| COc1cc2ncnc(Nc3cccc(Cl)c3)c2cc1OC [AG1478, reference compound] | more and larger hair follicles; also recorded: more and larger HF |  |  |  |  |
| EGF: epidermal growth factor, recombinant, injected into the wound bed |  | prevents hair re-growth | prevented HF formation | no new HF formation; also recorded: inhibits HF formation | inhibited EDIHN |
